Source: patent EP4682141A1, “TRICYCLIC COMPOUND” (ONO Pharmaceutical Co., Ltd., priority 2023, dated 2024)

What was measured:
EP3 receptor = target: T1, EP3 receptor (Homo sapiens, UniProt P43115); experiment: agonist activity on human EP3 receptor (intracellular calcium concentration, EP3-Chem1 cells); type: cell-based; settings: agonist activity on the EP3 receptor
T1 construct: expressed in transfected cells; host or cells: EP3-Chem1
T1 sequence (P43115 1-390): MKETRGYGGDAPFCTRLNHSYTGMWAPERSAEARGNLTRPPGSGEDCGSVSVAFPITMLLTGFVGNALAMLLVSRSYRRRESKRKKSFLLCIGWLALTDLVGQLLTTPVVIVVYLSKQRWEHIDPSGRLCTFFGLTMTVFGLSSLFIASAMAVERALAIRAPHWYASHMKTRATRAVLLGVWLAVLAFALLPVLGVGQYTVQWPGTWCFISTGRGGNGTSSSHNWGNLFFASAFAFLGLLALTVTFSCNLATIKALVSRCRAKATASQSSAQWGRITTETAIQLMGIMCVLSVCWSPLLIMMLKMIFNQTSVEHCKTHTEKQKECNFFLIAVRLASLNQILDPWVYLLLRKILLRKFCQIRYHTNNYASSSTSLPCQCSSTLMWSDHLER
Protocol: (§1) Using CHO cells (EP1-CHO, EP2-CHO, EP3-Chem1, EP4-CHO and IP-CHO) on which various human prostanoid receptors were forcibly expressed, the agonist activity of the test compound on the various prostanoid receptors was examined using the intracellular calcium concentration for EP1 and EP3, and the intracellular cyclic AMP (hereinafter, abbreviated as cAMP) production amount for EP2, EP4 and IP as indices.
The test compound and control substances (PGE2 and iloprost) were dissolved in dimethyl sulfoxide (DMSO) to prepare a 10 mmol/L solution. The prepared 10 mmol/L solution was thawed at the time of use, serially diluted using DMSO, and diluted with a buffer solution 1 for measurement (Hank's balanced salt solution (Thermofischer scientific) containing 1 w/v% human serum albumin (Sigma), 2 µmol/L indomethacin (Sigma), 2.5 mmol/L probenecid, and 10 mmol/L HEPES-NaOH (pH7.4)) or a buffer solution 2 for measurement (D-PBS (Nacalai Tesque) containing 0.1 w/v% human serum albumin, 2 µmol/L diclofenac (Sigma), and 1 mmol/L 3-isobutyl-1-methylxanthine (Sigma)) to perform experiments.

EP1 = target: T2, EP1 (Homo sapiens, UniProt P34995); experiment: agonist activity on human EP1 receptor (intracellular calcium concentration, EP1-CHO cells); type: cell-based
T2 construct: expressed in transfected cells; host or cells: CHO (EP1-CHO)
T2 sequence (P34995 1-402): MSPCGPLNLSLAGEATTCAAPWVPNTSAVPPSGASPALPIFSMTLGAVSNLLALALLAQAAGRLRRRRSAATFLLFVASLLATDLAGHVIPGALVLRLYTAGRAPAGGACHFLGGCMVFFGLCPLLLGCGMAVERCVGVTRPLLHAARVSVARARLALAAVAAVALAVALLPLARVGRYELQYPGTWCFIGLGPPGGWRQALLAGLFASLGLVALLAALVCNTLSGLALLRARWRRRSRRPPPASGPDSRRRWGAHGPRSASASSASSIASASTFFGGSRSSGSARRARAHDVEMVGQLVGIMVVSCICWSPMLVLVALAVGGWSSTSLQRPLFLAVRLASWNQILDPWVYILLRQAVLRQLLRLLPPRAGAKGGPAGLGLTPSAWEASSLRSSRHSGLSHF
Procedure, shortened: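 Calcium 6 dye loaded 1 h at room temperature in HBSS with 1% human serum albumin, 2 µmol/L indomethacin, 2.5 mmol/L probenecid, pH 7.4; agonists then added at various concentrations. Intracellular calcium read by fluorescence (ex 480/em 540 nm) in CHO cells expressing human EP1 or Chem1 cells expressing human EP3.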

EP2 = target: T3, EP2 (Homo sapiens, UniProt P43116); experiment: agonist activity on human EP2 receptor (cAMP production, EP2-CHO cells); type: cell-based
T3 construct: expressed in transfected cells; host or cells: CHO (EP2-CHO)
Protocol: as §1
(§2) The test compound and control substances (PGE2 and iloprost) were dissolved in dimethyl sulfoxide (DMSO) to prepare a 10 mmol/L solution. […]
(§3) On the day of the measurement, EP2-CHO, EP4-CHO, and IP-CHO were obtained by thawing frozen cells. […] The cAMP concentration was measured using a cAMP HTRF HiRange kit (CIS bio International). […] After incubation for 1 hour, time-resolved fluorescence at 620 nm and 660 nm when excited at 340 nm was measured using Synergy Neo (Bioteck), and the ratio (TRF ratio) was determined to calculate the cAMP concentration from the calibration curve.

EP4 = target: T4, EP4 (Homo sapiens, UniProt P35408); experiment: agonist activity on human EP4 receptor (cAMP production, EP4-CHO cells); type: cell-based
T4 construct: expressed in transfected cells; host or cells: CHO (EP4-CHO)
Protocol: as §1, §2, §3

IP = target: T5, IP (Homo sapiens, UniProt P43119); experiment: agonist activity on human IP receptor (cAMP production, IP-CHO cells); type: cell-based
T5 construct: expressed in transfected cells; host or cells: CHO (IP-CHO)
Protocol: as §1, §2, §3

[1] = test system: rat renal ischemia reperfusion (IR) model; experiment: in vivo drug efficacy in rat renal ischemia reperfusion (IR) model; parameters: species or system Crl : CD (SD) rats; settings: subcutaneous osmotic pump
Protocol: The effect of the present compound on renal IR damage was evaluated using male rats.
Male Crl : CD (SD) rats aged 3 or 4 weeks were purchased from Charles River Laboratories Japan, and subjected to experiments. Animals were fed ad libitum with FR-2 (Funabashi Farm) at the time of arrival and with solid feed CE-2 (CLEA Japan) for one week before single kidney removal, and watered ad libitum.
After acclimation breeding, the right kidney was removed about 7 days before renal IR treatment. Specifically, the rats were allowed to inhale isoflurane (Mylan) for anesthesia, and administered buprenorphine (Otsuka Pharmaceutical) as an analgesic at 0.01 mg/kg. The right back was incised, the right kidney was removed, and then the incision was sutured.
Renal IR treatment was performed about 7 days after single kidney removal. Specifically, rats were anesthetized by intraperitoneal administration of sodium pentobarbital (Tokyo Chemical Industry) at a dose of 50 mg/kg, and administered buprenorphine as an analgesic at 0.01 mg/kg. The left abdomen was incised, and the renal artery and vein was sandwiched with a clamp (Natsume Seisakusho) to cause ischemia for 35 minutes. During ischemia, the rats were allowed to lie on a heat-retaining plate set at 38°C, and after 35 minutes, the clamp was removed for reperfusion. After visually confirming that blood flow to the kidney was recovered, the incision was sutured. The sham group was a sham-operated group in which neither ischemia nor reperfusion treatment was performed.
Animals were distributed on the day before renal IR treatment such that differences in the mean of the body weight in each group were not biased, and assigned animal numbers.
The compound of Example 7 (test substance) and physiological saline (Otsuka Pharmaceutical) as a vehicle were subcutaneously administered at 5 mL/kg using an injection needle 5 minutes before renal IR treatment. Saline was administered to the sham group in the same test. The administration dose is described in Table 16.
Specifically, the rats were allowed to inhale isoflurane for anesthesia on the day before renal IR treatment, and administered buprenorphine as an analgesic at 0.01 mg/kg. […] The incision was bonded with Dermabond Advanced (Johnson & Johnson). A pump containing a vehicle was also embedded in the sham group in the same test. The administration dose is described in Table 16.
After renal IR treatment, blood was collected through the tail vein on Day1, Day2, and Day3 to obtain serum. In addition, after renal IR treatment, rats were euthanized by exsanguination through the abdominal aorta under isoflurane anesthesia on Day3.
The respective concentrations of serum creatinine (sCre) and blood urea nitrogen (BUN) were measured using an automatic analyzer 7180 (Hitachi High-Tech).

T3 sequence (P43116 whole entry): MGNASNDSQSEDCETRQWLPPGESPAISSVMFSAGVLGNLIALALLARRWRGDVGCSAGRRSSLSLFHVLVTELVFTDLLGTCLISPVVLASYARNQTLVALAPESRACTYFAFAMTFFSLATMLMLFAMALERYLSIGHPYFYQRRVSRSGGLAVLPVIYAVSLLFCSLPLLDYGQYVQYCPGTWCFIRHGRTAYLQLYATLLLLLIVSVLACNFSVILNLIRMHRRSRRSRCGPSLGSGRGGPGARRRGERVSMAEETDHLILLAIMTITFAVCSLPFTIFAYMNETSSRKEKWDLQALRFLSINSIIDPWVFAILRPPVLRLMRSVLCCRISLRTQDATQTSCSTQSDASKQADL
T5 sequence (P43119 whole entry): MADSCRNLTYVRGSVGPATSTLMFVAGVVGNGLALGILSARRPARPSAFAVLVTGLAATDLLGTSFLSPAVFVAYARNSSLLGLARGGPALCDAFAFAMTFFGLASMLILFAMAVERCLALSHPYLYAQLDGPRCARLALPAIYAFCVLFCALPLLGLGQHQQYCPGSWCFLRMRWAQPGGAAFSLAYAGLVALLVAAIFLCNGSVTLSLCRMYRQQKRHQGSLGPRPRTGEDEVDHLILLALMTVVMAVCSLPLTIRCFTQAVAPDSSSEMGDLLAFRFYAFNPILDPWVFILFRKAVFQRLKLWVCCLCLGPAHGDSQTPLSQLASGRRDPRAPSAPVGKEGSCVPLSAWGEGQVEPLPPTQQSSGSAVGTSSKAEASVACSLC
T4 sequence (P35408 whole entry): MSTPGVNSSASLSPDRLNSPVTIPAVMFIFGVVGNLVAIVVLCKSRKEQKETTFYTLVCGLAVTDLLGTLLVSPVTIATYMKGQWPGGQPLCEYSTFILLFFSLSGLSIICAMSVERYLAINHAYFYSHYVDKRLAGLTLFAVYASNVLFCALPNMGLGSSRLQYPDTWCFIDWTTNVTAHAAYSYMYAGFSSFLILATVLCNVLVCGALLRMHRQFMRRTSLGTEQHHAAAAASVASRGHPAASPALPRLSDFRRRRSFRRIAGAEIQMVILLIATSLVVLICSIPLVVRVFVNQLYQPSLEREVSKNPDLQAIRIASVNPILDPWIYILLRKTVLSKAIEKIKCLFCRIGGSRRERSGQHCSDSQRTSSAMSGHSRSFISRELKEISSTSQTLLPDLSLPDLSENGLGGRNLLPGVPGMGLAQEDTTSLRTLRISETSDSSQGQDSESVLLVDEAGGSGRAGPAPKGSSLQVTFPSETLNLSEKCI

EC50 (EP3 receptor): 40 nM | EC50 (EP1): > 10000 nM | EC50 (EP2): > 10000 nM | EC50 (EP4): 1500 nM | EC50 (IP): > 10000 nM
Substance: (1R,2R,3aS,10aR)-1-{(1E,3ξ)-3-[1-(2,5-difluorophenyl)cyclobutyl]-3-hydroxy-1-propen-1-yl}-2-hydroxy-2,3,3a,9,10,10a-hexahydro-1H-benzo[b]cyclopenta[f]oxepine-6-carboxylic acid [Example 7-30]
blood urea nitrogen (BUN) concentration mean ([1]; IR 0.3 µg/kg/min, day 1): 96.6 | serum creatinine (sCre) concentration mean ([1]; IR 0.3 µg/kg/min, day 1): 1.78 | blood urea nitrogen (BUN) concentration mean ([1]; IR 0.3 µg/kg/min, day 2): 94.3 | serum creatinine (sCre) concentration mean ([1]; IR 0.3 µg/kg/min, day 2): 1.42 | blood urea nitrogen (BUN) concentration mean ([1]; IR 0.3 µg/kg/min, day 3): 79.8 | serum creatinine (sCre) concentration mean ([1]; IR 0.3 µg/kg/min, day 3): 1.00 | blood urea nitrogen (BUN) concentration mean ([1]; IR 3.0 µg/kg/min, day 1): 89.5 | serum creatinine (sCre) concentration mean ([1]; IR 3.0 µg/kg/min, day 1): 1.45 | blood urea nitrogen (BUN) concentration mean ([1]; IR 3.0 µg/kg/min, day 2): 81.8 | serum creatinine (sCre) concentration mean ([1]; IR 3.0 µg/kg/min, day 2): 1.10 | blood urea nitrogen (BUN) concentration mean ([1]; IR 3.0 µg/kg/min, day 3): 70.7 | serum creatinine (sCre) concentration mean ([1]; IR 3.0 µg/kg/min, day 3): 0.83
